Our source for the inhibition values is PMC6934184, “Selective DNA-PKcs inhibition extends the therapeutic index of localized radiotherapy and chemotherapy” (The Journal of Clinical Investigation, 2019).

The target in this test is T1, MST4 (Homo sapiens, UniProt Q9P289).
T1 construct: purchased Thermo Fisher Scientific (Life Technologies) SelectScreen
Put plainly: SelectScreen Z'LYTE. Format: biochemical. The method, boiled down:
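Percent values come from Thermo SelectScreen profiling of NU5455, combining activity and binding assays. CSF1R was run in Z'LYTE format at Km app ATP, and CAMK1 in Adapta format with ATP listed at 10.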

T1 sequence (Q9P289 whole entry): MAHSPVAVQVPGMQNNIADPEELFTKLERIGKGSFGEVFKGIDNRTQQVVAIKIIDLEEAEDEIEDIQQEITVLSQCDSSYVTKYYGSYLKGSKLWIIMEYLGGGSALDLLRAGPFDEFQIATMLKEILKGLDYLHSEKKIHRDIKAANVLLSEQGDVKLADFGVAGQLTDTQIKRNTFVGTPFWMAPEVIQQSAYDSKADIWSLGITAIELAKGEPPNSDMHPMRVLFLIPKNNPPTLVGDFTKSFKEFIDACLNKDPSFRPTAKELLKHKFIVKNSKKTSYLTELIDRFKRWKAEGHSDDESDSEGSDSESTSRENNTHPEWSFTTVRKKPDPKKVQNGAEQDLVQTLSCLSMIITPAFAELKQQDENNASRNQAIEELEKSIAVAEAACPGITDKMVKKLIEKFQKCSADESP

What is called inhibition is how much of the control response was suppressed. A higher inhibition goes with strong suppression. In turn, `CN(C(=O)CN1CCOCC1)c1ccc2sc3c(-c4cccc5c(=O)cc(N6CC7CCC(C6)O7)oc45)cccc3c2c1` [NU5455] had an inhibition at 1 µM of 6.9%.
